Earlier results, collected in patent US9943402B2, “Micropatterned intraocular implant” (InSight Innovations, LLC, priority 2008, dated 2018).

Tested on: posterior capsule opacification (PCO)
Settings: topical treatment after phacoemulsification

| SMILES | inhibition of PCO (in words) |
| --- | --- |
| O=C(O)Cc1ccccc1Nc1c(Cl)cccc1Cl [diclofenac] | do not appear to inhibit PCO |
| COc1ccc2c(c1)c(CC(=O)O)c(C)n2C(=O)c1ccc(Cl)cc1 [indomethacin] | do not appear to inhibit PCO |
